Tests used:
[1] = Visual inspection of solubility of test sample in extracellular fluid; type: physicochemical; conditions: 1 nM to 1 μM in extracellular fluid pH 7.4, DMSO 0.1%
Description: Extracellular fluid: 140 mM NaCl, 3.5 mM KCl, 1 mM MgCl2, 2 mM CaCl2, 10 mM glucose, 10 mM HEPES, 1.25 mM NaH2PO4, pH=7.4 (adjusted by NaOH). The stock solution of the compound of Example 8 of the present invention (30.26 mM solution in DMSO) was successively diluted with 10 mL of extracellular fluid to obtain 0.3 μM, 1 μM, 3 μM, […], and 30 μM solutions. […] 10 mg of Cisapride was dissolved in 2066.29 μL of dimethyl sulfoxide (DMSO) to obtain a 10 mM stock solution. The Cisapride stock solution was successively diluted with dimethyl sulfoxide (DMSO) to obtain a total of 4 concentrations of 1 μM, 10 μM, 100 μM and 1 mM. Before the test, 10 μL of the diluent at each concentration was added to 10 mL of extracellular fluid to ensure that the DMSO concentration was 0.1%. The final working concentration of Cisapride was 1 nM, 10 nM, 100 nM and 1 μM.

[2] = test system: cholestasis rat induced by ANIT; assay: Efficacy on the cholestasis rat model induced by 1-naphthyl isothiocyanate (ANIT); type: in vivo, SD rats; set-up: ALT / AST / GGT / TBA: unit not given here; conditions: for ALT / AST / GGT / TBA: serum, 4 days, ANIT rat; for level of ALT, AST, GGT and TBA in the serum of ANIT rat (in words): 3 and 10 mg/kg/d, conclusion of Test Example 2
Description: Animals: SD rats, male, 7 to 8 weeks old, weight: 220 to 240 g, purchased from Beijing Vital River Laboratory Animal Technology Co., Ltd., SPF grade, Certificate No.: SCXK (Beijing) 2016-0011, license issuing administration: Beijing Municipal Commission of Science and Technology.
Sample formulation: The compound of the present invention was added to DMSO, and dissolved completely by ultrasound. 0.5% CMC-Na was added to constant volume (DMSO: 0.5% CMC-Na=1:99), and the solution was homogenized by ultrasound for later use.
After 3 to 5 days of acclimation, the animals were divided into 20 groups according to body weight: normal group, model group, Example 8 (3 mg/kg/d, 10 mg/kg/d) group, Example 11 (3 mg/kg/d, 10 mg/kg/d) group, Example 12 (3 mg/kg/d, 10 mg/kg/d) group, Example 14 (3 mg/kg/d, 10 mg/kg/d) group, Example 20 (3 mg/kg/d, 10 mg/kg/d) group, Example 22 (3 mg/kg/d, 10 mg/kg/d) group, Example 26 (3 mg/kg/d, 10 mg/kg/d) group, Example 28 (3 mg/kg/d, 10 mg/kg/d) group, and Example 29 (3 mg/kg/d, 10 mg/kg/d) group, with 10 rats for each group. Intragastric administration was conducted with an administration volume of 10 mL/kg, once a day, for a total of 4 days. On Day 2, ANIT (1-naphthyl isothiocyanate, Macklin, purity: 98%, item number: N814658, CAS number: 551-06-4, specification: 5 g/bottle, storage conditions: 2 to 8 degrees, batch number: C10116101) with a dose of 50 mg/kg and an administration volume of 5 mL/kg was administered intragastrically once to each animal (except for animals in the normal group) 4 hours after the administration. The animals were fasted on Day 4 morning. The animals were anesthetized by isoflurane inhalation using a small animal anesthesia machine. Blood was collected from the venous plexus behind the eyeball using a capillary glass tube (about 1 ml per animal), and then left to stand for about one hour. It was centrifuged at 3500 rpm for 10 minutes to obtain the serum. ALT, AST, GGT and TBA indexes as well as the plasma concentration of the compound were determined using an AU480 automatic biochemical analysis system (BECKMAN COULTER). Liver was collected, weighed, and cutted into pieces. Normal saline was added (liver weight: normal saline=1:2), and the mixture was homogenized and freezed. The concentration of the compound in liver was determined using an ultra performance liquid chromatograph (Shimadzu, LC 30AD) and triple quadrupole mass spectrometer (AB, TQ5500).

FXR = molecular target: T1, FXR (Homo sapiens, UniProt Q96RI1); assay: FXR agonistic activity, luciferase assay; type: cell-based; conditions: luc2P-GAL4-HEK293 cells transfected with pBIND-FXR, 24 hours
T1 sequence (Q96RI1 262-486 limits assumed): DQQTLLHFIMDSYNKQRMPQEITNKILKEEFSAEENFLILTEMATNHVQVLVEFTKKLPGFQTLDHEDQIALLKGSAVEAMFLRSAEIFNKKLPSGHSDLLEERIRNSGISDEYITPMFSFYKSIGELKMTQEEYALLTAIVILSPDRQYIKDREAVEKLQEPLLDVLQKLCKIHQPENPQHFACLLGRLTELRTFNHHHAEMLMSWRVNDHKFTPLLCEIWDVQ
Description: The FXR agonistic activity of the compound of the present invention was evaluated using the luciferase assay.
The experimental process comprises the follows. The luc2P-GAL4-HEK293 stably transfected cell line (the cell line was established by transfecting pGL4.35 plasmid with HEK293 cells which was then subjected to Hygromycin B screening. The cell contained 9×GAL4 UAS and firefly luciferase reporter gene. The ligand-activated LBD-GAL4 DBD fusion protein can enter the nucleus to bind to 9×GAL4 UAS and activate the transcription of the downstream luciferase reporter gene) was transferred to a 96-well plate with […] per well. pBIND-FXR (Which was constructed by inserting FXR-LBD into pFN26A-BIND hRluc-neo Flexi® vector. The plasmid was 7.5 kb in size, Amp resistant, contained FXR-LBD, and can express FXR-LBD and GAL4 DBD fusion proteins) was transfected using X-tremeGENE HP transfection reagent. The ratio of plasmid to transfection reagent was 1 μg: 2 μl. The specific amount was 100 ng of plasmid and 0.2 μl of X-tremeGENE HP transfection reagent per well. The test compounds (the highest concentration of each compound was 30 μM, 3-fold dilution, a total of 10 concentrations) were added to induce the expression of luciferase. After 24 hours, the 96-well plate containing the test cells was taken out from the incubator, and placed at room temperature. Dual-Glo® Luciferase Reagent with the volume equal to the volume of the medium in the well (80 μl/well) was added to each well and mixed well. The plate was incubated at room temperature for 20 minutes to allow the cells to be fully lysed. All the liquid in the plate was transferred to a 96-well microtiter plate, and the firefly luciferin value was measured with a multi-function plate reader (manufacturer: Bio Tek (USA); model: Synergy4). Dual-Glo® a Stop & Glo® Reagent with the volume equal to the volume of the initial medium (80 μl/well) was added to each well and mixed well. The plate was incubated at room temperature for 10 minutes, and the renilla luciferin value was measured. The measurement order of renilla fluorescence should be the same as that of firefly fluorescence. Curve fitting and EC50 calculation were conducted using GraphPad Prism 5 software by nonlinear regression method. The fitting equation is: Y=Bottom+(Top−Bottom)/(1+10^((Log EC50−X)*HillSlope)), wherein EC50 refers to the semi-effective concentration, Top refers to the maximum effect, Bottom refers to the blank effect, and HillSlope refers to the slope.

Row | SMILES | solubility, visually inspected [1] | ALT ([2]; 3 mg/kg/d intragastric) | AST ([2]; 3 mg/kg/d intragastric) | GGT ([2]; 3 mg/kg/d intragastric) | TBA ([2]; 3 mg/kg/d intragastric) | ALT ([2]; 10 mg/kg/d intragastric) | AST ([2]; 10 mg/kg/d intragastric) | GGT ([2]; 10 mg/kg/d intragastric) | TBA ([2]; 10 mg/kg/d intragastric) | EC50 (FXR) [nM] | level of ALT, AST, GGT and TBA in the serum of ANIT rat (in words) [2]
1 | COc1cc(N)c(Cl)cc1C(=O)NC1CCN(CCCOc2ccc(F)cc2)CC1OC (centres unmarked) [Cisapride, reference compound] | completely dissolved without visible precipitation | – | – | – | – | – | – | – | – | – | –
2 | O=C(O)c1csc(-c2nnc(N3[C@@H]4CC[C@H]3C[C@@H](OCc3c(-c5c(Cl)cccc5Cl)noc3C3CC3)C4)o2)c1 [Example 20] | – | 141.5 ± 101.4 | 400.2 ± 304.4 | 2.8 ± 1.2 | 119.5 ± 124.7 | 50.9 ± 22.4 | 139.8 ± 58.4 | 2.6 ± 0.5 | 16.1 ± 8.0 | 50 to 100 | –
3 | O=C(O)c1ccc(-c2nnc(N3[C@@H]4CC[C@H]3C[C@@H](OCc3c(-c5ccccc5OC(F)(F)F)noc3C3CC3)C4)o2)c(F)c1 [Example 29] | – | 82.0 ± 44.5 | 256.0 ± 168.8 | 2.3 ± 1.1 | 51.7 ± 65.2 | 77.8 ± 69.5 | 189.4 ± 76.9 | 1.9 ± 0.4 | 26.8 ± 13.6 | 100 to 500 | significantly reduce
4 | O=C(O)c1ccc(-c2nnc(N3[C@@H]4CC[C@H]3C[C@@H](OCc3c(-c5ccccc5OC(F)(F)F)noc3C3CC3)C4)o2)cc1F [Example 26] | – | 62.2 ± 27.6 | 187.7 ± 50.4 | 1.9 ± 0.8 | 23.2 ± 10.1 | 50.0 ± 11.2 | 162.3 ± 27.7 | 1.4 ± 0.7 | 35.3 ± 13.2 | 100 to 500 | significantly reduce
5 | O=C(O)c1cccc(-c2nnc(N3[C@@H]4CC[C@H]3C[C@@H](OCc3c(-c5ccccc5OC(F)(F)F)noc3C3CC3)C4)o2)c1 [Example 28] | – | 147.1 ± 66.2 | 342.7 ± 153.6 | 2.3 ± 0.5 | 66.2 ± 58.4 | 46.6 ± 12.1 | 150.8 ± 28.7 | 1.9 ± 0.5 | 20.5 ± 6.0 | < 25 | significantly reduce
6 | O=C(O)c1ccc(-c2nnc(N3[C@@H]4CC[C@H]3C[C@@H](OCc3c(-c5c(Cl)cccc5Cl)noc3C3CC3)C4)o2)cc1F [Example 12] | – | 122.5 ± 89.7 | 314.2 ± 237.9 | 2.2 ± 0.8 | 69.0 ± 66.7 | 54.7 ± 27.3 | 139.3 ± 34.6 | 1.9 ± 0.5 | 25.4 ± 14.3 | 100 to 500 | significantly reduce
